{"source": "patent US12201745B2", "about": "“Vascular extracellular matrix hydrogel” (University of Pittsburgh—Of the Commonwealth System of …, priority 2016, dated 2025)", "key": {"[1]": {"test_system": "Primary human adventitia-derived endothelial cells", "assay": "Endothelial cell branching assay (tube-like structures on GFR-Matrigel)", "assay_type": "cell-based", "details": "100 nM", "protocol": "FIGS. 13A-13C. Effect of ECM bioscaffolds on network formation of tube-like structures in vitro. FIG. 13A—Human adventitia-derived endothelial cells were cultured on growth factor reduced-Matrigel substrates: (A) DMSO, 0.05% (v/v), (B) Digestion buffer (1% (w/v) Pepsin in 0.1 N HCl), (C) pAdv ECM, and (D) pSIS ECM. FGF2 inhibitor PD173074 (100 nM) was added to the culture medium of above treatments shown in parallel wells (E-H). A-H: One representative 10× field is shown, selected from one of three replicates of two independent experiments. All scale bars=50 μm for (A-H). Quantification of the number (FIG. 13B) and total length (FIG. 13C) of tube-like structures from 5×5 stitched fields captured at 10× for non-ECM-supplemented (open bars), pAdv (solid bars) and pSIS (gray bars) ECM-supplemented substrates in the absence and presence of PD173074. Bars represent mean of three assay replicates ±standard deviation. Images and graphs represent data from one of two independent experiments. *Significant from pepsin HCl, p<0.02; #Significant from pAdv ECM-treated cells in the absence of PD173074, p<0.03.\nEndothelial Cell Branching Assay. […] Total number and length of tube-like structures were quantified using NIS Elements Software."}, "[2]": {"test_system": "chick chorioallantoic membrane (CAM)", "assay": "Chick chorioallantoic membrane (CAM) model of in vivo angiogenesis", "details": "100 nM PD173074 with 250 μg/mL pAdv ECM bioscaffold in fibrin scaffold", "protocol": "FIGS. 14A-14D. Effect of ECM bioscaffolds on angiogenesis in vivo. FIG. 14A) Representative bright field images of scaffolds before (Time 0) and after (72 hr) incubation on the chorioallantoic membrane (CAM) of the chick embryo. […] There was no appreciable angiogenic response detected around scaffolds loaded with digestion buffer (1% (w/v) pepsin in 0.1 N HCl) or DMSO. Addition of the FGF2 inhibitor PD173074 (100 nM) abrogated the angiogenic response to pAdv ECM. […] All scale bars for FIG. 14A=5 mm. FIG. 14B) Representative histological cross-sections of CAM assay scaffolds. The CAM vasculature was visualized using injected tomato lectin-Dylight® 650 (red) and nuclei are labeled with Hoechst dye (blue). A dashed white line denotes the scaffold/CAM interface. […] The maximum tested dose of pAdv ECM (500 μg/mL) inhibited invasion of blood vessels into the scaffold. […] All scale bars in FIG. 14B and FIG. 14C=[…] *Avascular zone comprised of lectin-negative cells. FIG. 14D). […] (*) avascular zone comprised of lectin-negative cells. All scale bars for FIG. 14D=20 μm.\nChick Chorioallantoic Membrane (CAM) Model of In Vivo Angiogenesis. […]"}}, "data": [{"molecule": "CCN(CC)CCCCNc1ncc2cc(-c3cc(OC)cc(OC)c3)c(NC(=O)NC(C)(C)C)nc2n1", "note": "[PD173074]", "values": [{"measurement": "effect on tube-like formation on non-ECM substrates", "setting": "[1]; Matrigel alone or pepsin HCl-supplemented substrates", "value": "did not affect tube-like formation"}, {"measurement": "effect on tube-like formation on ECM-supplemented substrates", "setting": "[1]; pAdv and pSIS ECM bioscaffold-supplemented substrates vs absence of inhibitor", "value": "decreased the tube-like formation"}, {"measurement": "effect on pAdv ECM bioscaffold-induced angiogenesis", "setting": "[2]", "value": "completely inhibited"}]}]}
